Assay results: ChEMBL document CHEMBL5154666, “Small molecules with tetrahydroquinoline-containing Povarov scaffolds as inhibitors disrupting the Protein-RNA interaction of LIN28-let-7” (Eur J Med Chem, 2022)

Assays:
[1] = Inhibition of Cy3-labeled mouse preE-let-7f-1 miRNA binding to human LIN28A (16 to 187 residues) expressed in Escherichia coli BL21 (DE3) at 75 uM preincubated for 2 hrs followed by miRNA addition and measured after 15 mins by electrophoretic mobility shift assay relative to control
[2] = Inhibition of FAM-labeled mouse preE-let-7f-1 miRNA binding to human LIN28A (16 to 187 residues) expressed in Escherichia coli BL21 (DE3) by fluorescence polarization assay
JAR = assay: Antiproliferative activity against human JAR cells assessed as reduction in cell viability at 10 uM by MTT assay; format: functional
[3] = Inhibition of FAM-labeled mouse preE-let-7f-1 miRNA binding to human LIN28A (16 to 187 residues) expressed in Escherichia coli BL21 (DE3) preincubated for 30 mins followed by miRNA addition by fluorescence polarization assay
[4] = Inhibition of Cy3-labeled mouse preE-let-7f-1 miRNA binding to human LIN28A (16 to 187 residues) expressed in Escherichia coli BL21 (DE3) preincubated for 2 hrs followed by miRNA addition and measured after 15 mins by electrophoretic mobility shift assay

inhibition [1] [%]	SMILES	inhibition at 10 µM (JAR) [%]	also measured
34	O=C(O)c1ccc([C@@H]2Nc3c(Cl)cc(Cl)cc3[C@@H]3C=CC[C@@H]32)cc1	–	–
< 5	CC(=O)c1ccc2c(c1)[C@@H]1C=CC[C@@H]1[C@H](c1ccc(C(=O)O)cc1)N2	–	–
< 5	CC(C)Oc1cccc2c1N[C@@H](c1ccc(C(=O)O)cc1)[C@H]1CC=C[C@@H]21	–	–
< 5	N#Cc1ccc2c(c1)[C@@H]1C=CC[C@@H]1[C@H](c1ccc(C(=O)O)cc1)N2	–	–
< 5	CC(=O)c1ccc2c(c1)N[C@@H](c1ccc(C(=O)O)cc1)[C@H]1CC=C[C@@H]21	–	–
53	CCOc1cccc2c1N[C@@H](c1ccc(C(=O)O)cc1)[C@H]1CC=C[C@@H]21	< 10	IC50 [2]: 50 µM; IC50 [4]: 41.6 µM
< 5	COc1cccc2c1N[C@@H](c1ccc(C(=O)O)cc1)[C@H]1CC=C[C@@H]21	–	–

The next lines start with the compound.

SMILES	inhibition [1] [%]	inhibition at 10 µM (JAR) [%]	also measured
CCOc1cccc2c1N[C@@H](c1cccnc1)[C@H]1CC=C[C@@H]21	< 5	–	–
CCOc1cccc2c1N[C@H](c1ccc(C(=O)O)cc1)[C@@H]1CC=C[C@H]21	–	–	IC50 [2]: 40 µM
CCOc1cccc2c1N[C@@H](c1ccc(C#N)cc1)[C@H]1CC=C[C@@H]21	< 5	–	–
COc1cc2c(c(OC)c1OC)[C@@H]1C=CC[C@@H]1[C@H](c1ccc(C(=O)O)cc1)N2	< 5	–	–
O=C(O)c1cccc([C@@H]2Nc3c(OC(F)(F)F)cccc3[C@@H]3C=CC[C@@H]32)c1	–	20	–
CCOc1cccc2c1N[C@@H](c1ccc(C(F)(F)F)cc1)[C@H]1CC=C[C@@H]21	< 5	–	–
CCOC(=O)[C@@H]1Nc2c(OCC)cccc2[C@@H]2C=CC[C@H]12	< 5	–	–
CCOc1cccc2c1N[C@@H](c1ccc(C(=O)OC)cc1)[C@H]1CC=C[C@@H]21	< 5	–	–
CCOc1cccc2c1N[C@@H](c1cccc(O)c1)[C@H]1CC=C[C@@H]21	< 5	–	–
CCOc1cccc2c1N[C@@H](c1cccc(C(=O)O)c1)[C@H]1CC=C[C@@H]21	86	< 10	IC50 [3]: 4 µM; IC50 [4]: 21.9 µM
CCOc1cccc2c1N[C@@H](c1ccc(C(=O)O)[nH]1)[C@H]1CC=C[C@@H]21	–	23	–
CCOc1cccc2c1N[C@@H](C(=O)O)[C@H]1CC=C[C@@H]21	86	< 10	IC50 [4]: 21.5 µM
CCOc1cccc2c1N(C(C)=O)[C@@H](c1ccc(C(=O)O)cc1)[C@H]1CCCN(C(=O)OC(C)(C)C)[C@@H]21	–	35	–
CCOc1cccc2c1N(C(C)=O)[C@@H](c1cccc(C(=O)O)c1)[C@H]1CC=C[C@@H]21	–	31	–
CCOc1cccc2c1N[C@@H](c1ccc([N+](=O)[O-])cc1)[C@H]1CC=C[C@@H]21	< 5	–	–
CCOc1cccc2c1N(C(C)=O)[C@@H](c1ccc(C(=O)O)cc1)[C@H]1CCCN[C@@H]21	–	19	–
